This note sets out measurements from publication PMC10823475, “Design, Synthesis, and Evaluation of Inhibitors of Hedgehog Acyltransferase” (Journal of Medicinal Chemistry, 2024).

Each structure is given as a SMILES string.

Data set [1] is described as follows: PAMPA parallel artificial membrane permeability assay. The settings on record: for recovery at 16 h, 10 µM / Papp at 16 h, 10 μM: PAMPA. In general terms: In PAMPA a lipid-coated filter parts donor from acceptor wells.
In data set [2] the target is T1, purified HHAT (Homo sapiens, UniProt Q5VTY9).
T1 construct: made in house
Briefly: Acyl-cLIP assay, inhibition of purified HHAT. The data set is classed as biochemical. Particulars: for IC50: purified HHAT, read-out: Acyl-cLIP Assay IC50 (CI95). How it is done: The inhibitory potency of all 50 compounds against purified HHAT was quantified using the acylation-coupled lipophilic induction of polarization (acyl-cLIP) assay recently developed in our lab, a universally applicable assay for high-throughput analysis of protein–lipid transferases and hydrolases.[31],[40] In brief, in this assay a fluorescently labeled peptide based on the N-terminal sequence of SHH is incubated with N-dodecyl β-D-maltoside (DDM) solubilized purified HHAT, palmitoyl-CoA, and HHAT inhibitors. Binding of the lipidated peptide product to the DDM micelle results in decreased tumbling rate and an increase in polarization of fluorescence emission, enabling facile quantification of HHAT activity. Initially, % HHAT inhibition was determined at 50 μM and 25 μM for all analogues. […] HHAT is a 12-pass TM protein,[14] and we considered whether lipophilicity might bias inhibition; pIC50 values were compared to calculated log D, which indicated no significant correlation (SI, Table S1 and Figure S2). We concluded that lipophilicity is not a general driver of HHAT inhibitory potency.
The acyl-cLIP assay has been described previously.[40] Briefly, SHH-FAM peptide was diluted in buffer A (100 mM MES, 20 mM NaCl, 1 mM DTT, 1 mM TCEP, 0.1% BSA, pH 6.5) to a concentration of 2 μM. Palmitoyl-CoA (Sigma-Aldrich) was diluted in buffer A to 7.5 μM and recombinant HHAT (obtained by following the published protocol[14]) in buffer B (20 mM HEPES, 350 mM NaCl, 1% DDM, 5% glycerol, pH 7.3) diluted to 44 μg/mL. 1.5 μL of a 50 mM inhibitor DMSO stock was diluted with 18.5 μL of DMSO and further serial diluted (1:1). For each condition, 6 μL of the HHAT working stock and […] of the SHH-peptide working stock were mixed with 3 μL of the corresponding inhibitor concentration or DMSO vehicle. Twelve μL/well of this mixture was split into four wells of a black 384 well plate. To start the reaction, 8 μL of the Pal-CoA working stock were added to each well and fluorescence anisotropy and the total fluorescence recorded on an EnVision Xcite 2104 (PerkinElmer) over 30 min (emission filter 1 = FITC FP P-pol 535; emission filter 2 = FITC S-pol 535; excitation filter: FITC FP 480; measurement height = 6.5 mm; detector gain = 0; high concentration gain). Initial rate constants were determined by linear regression and normalized to DMSO control and samples with buffer B instead of HHAT. IC50 values were extracted from the corresponding dose response curves using a “sigmoidal dose response (variable slope)” model in GraphPad Prism 5 (GraphPad Software, Inc.).

Data set [3] can be described thus: MTS assay, cytotoxicity (72 h). Type of data set: cell-based. The settings on record: human, HEK293a SHH+ cells, 72 h; for CC50 at 72 h: read-out: MTS Assay (HEK293a SHH+) CC50 (CI95). How it is done:
The survival of HEK293a SHH^+ cells is independent of HH signaling,[35] therefore, the cytotoxicity of analogues was tested using the MTS assay to investigate off-target toxicity. In this assay, HEK293a SHH^+ cells were treated with DMSO vehicle or varying concentrations of analogues for 72 h. Subsequently, a mixture of 1-methoxy phenazine methosulfate (PMS) and [3-(4,5-dimethylthiazol-2-yl)-5-(3-carboxymethoxyphenyl)-2-(4-sulfophenyl)-2H-tetrazolium] (MTS) was added to enable quantification of cell number via colorimetric analysis. […] Compounds 3, 17, 19, 32, 34, 38, and 45, which all contain a 2-((2-methylbutyl)amino)acetyl, were toxic to HEK293a SHH^+ cells, as were ureas 26, 40, and 41.
HEK293a SHH^+ cells were plated at 5000 cells/well in a 96-well plate (Nunc) using a volume of 50 μL/well and cultured for 24 h as described. Cells were treated with 100 μL/well of either DMSO vehicle, Puromycin (2 μg/mL), or stated analogues (0.14–100 μM final) in DMEM supplemented with 10% FBS. After 72 h, 20 μL/well of a mixture of 1-methoxy phenazine methosulfate (PMS) and [3-(4,5-dimethylthiazol-2-yl)-5-(3-carboxymethoxyphenyl)-2-(4-sulfophenyl)-2H-tetrazolium] (MTS) at a ratio of MTS/PMS = 2/0.92 mg/mL in PBS was added and the plates were incubated for 3 h at 37 °C. Subsequently, the absorption at 490 nm was recorded using an EnVision Xcite 2104 (PerkinElmer), and the response was normalized to vehicle control and Puromycin treated samples. Dose response curves were fitted to a “sigmoidal dose response (variable slope)” model using GraphPad Prism 5 (GraphPad Software, Inc.).
On the technique in general: Tetrazolium dyes change colour on reduction, which living cells bring about.

T1 sequence (Q5VTY9 whole entry): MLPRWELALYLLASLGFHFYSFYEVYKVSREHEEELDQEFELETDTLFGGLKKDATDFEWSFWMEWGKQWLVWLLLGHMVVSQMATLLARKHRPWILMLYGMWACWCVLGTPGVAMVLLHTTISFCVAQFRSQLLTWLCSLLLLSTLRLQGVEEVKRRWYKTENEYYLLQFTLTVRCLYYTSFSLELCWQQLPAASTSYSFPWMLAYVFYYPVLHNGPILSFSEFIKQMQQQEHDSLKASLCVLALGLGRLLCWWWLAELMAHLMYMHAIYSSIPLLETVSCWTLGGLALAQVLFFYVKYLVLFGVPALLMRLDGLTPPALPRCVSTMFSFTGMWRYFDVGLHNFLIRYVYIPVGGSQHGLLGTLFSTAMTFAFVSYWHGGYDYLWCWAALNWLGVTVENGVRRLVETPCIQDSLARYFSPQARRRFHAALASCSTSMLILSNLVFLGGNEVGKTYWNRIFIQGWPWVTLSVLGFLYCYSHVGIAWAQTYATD

For orientation: Papp means the rate of passage across a membrane or cell layer, normalised by area and donor concentration. For `O=c1ccc2ccccc2o1` [Coumarin, reference compound], the recovery at 16 h, 10 µM in data set [1] (pH 5) was 99%; in data set [1] (pH 6.5) it was 99%; in data set [1] (pH 7.4), 114%. The Papp at 16 h, 10 μM in data set [1] (pH 5, PAMPA Papp pH 5, donor pH 5, 10 µM) was 124 ×10⁻⁶ cm/s; in data set [1] (pH 5, PAMPA Permeability Class pH 5, donor pH 5, 10 µM), more than 20 ×10⁻⁶ cm/s. Also, in data set [1] (donor pH 6.5, 10 µM), the “PAMPA Papp pH 6.5” value is on record as “>eqm”. Also, in data set [1] (donor pH 6.5, 10 µM), the “PAMPA Permeability Class pH 6.5” value is given as “>eqm”. Besides, the “PAMPA Papp pH 7.4” value in data set [1] (donor pH 7.4, 10 µM) was “>eqm”. Besides, the “PAMPA Permeability Class pH 7.4” value in data set [1] (donor pH 7.4, 10 µM) is given as “>eqm”.

Broadly, the inhibition is the change of the read-out against control, counted positive when it falls. As a reminder, the IC50 is the concentration that inhibits the measured activity by half. For orientation: viability means the share of living cells, or the viability signal relative to a control. Low values mean more harm to the cells, high ones less harm to the cells. `O=C([C@@H]1CCCN1)N1CCc2sccc2C1c1ccccc1` (mixture of isomers) [Compound 9, (S)-4-Phenyl-5-prolyl-4,5,6,7-tetrahydrothieno[3,2-c]pyridine]: in data set [2], the inhibition at 25 µM is 4 ± 5%, the inhibition at 50 µM was 30 ± 2% and the IC50 is more than 25 µM. In data set [3], this compound came in with a viability at 72 h, 12.5 µM of 90 ± 5% and a viability at 72 h, 25 µM of 81 ± 5%.

As to `C=CCN1CCc2sccc2C1c1cccc(C)c1` (stereo not shown) [Compound 15], in data set [2], the “HHAT inhibition in the acyl-cLIP assay” value is “no inhibitory effect”, the inhibition at 25 µM is -1 ± 5%, the inhibition at 50 µM is -5 ± 9% and the IC50 is more than 25 µM. For the same compound, in data set [3], the viability at 72 h, 12.5 µM came out at 81 ± 2% and the viability at 72 h, 25 µM is 74 ± 2%.

In the case of `CC(=O)N1CCc2sccc2C1C1CCCCC1` (stereo not shown) [Compound 35], in data set [2], the “HHAT inhibition in the acyl-cLIP assay” value was “loss of activity”, the inhibition at 25 µM was 6 ± 7%, the inhibition at 50 µM is 8 ± 7% and the IC50 is more than 25 µM. Also, in data set [3], the viability at 72 h, 12.5 µM was found to be 54 ± 2% and the viability at 72 h, 25 µM was 59 ± 3%.

The term CC50 denotes the concentration at which the toxic effect on the cells reaches its halfway point. As to `CCC(C)CNCC(=O)N1CCCCC1c1ccccn1` (stereo not shown) [Compound 50, 2-((2-Methylbutyl)amino)-1-(2-(pyridin-2-yl)piperidin-1-yl)ethan-1-one], in data set [2], the inhibition at 25 µM was 8 ± 1%, the inhibition at 50 µM turned out to be 3 ± 1% and the half-maximal inhibitory concentration (IC50) was more than 25 µM. For the same compound, in data set [3], the CC50 at 72 h is more than 100 µM; the viability at 72 h, 12.5 µM stood at 88 ± 2%; the viability at 72 h, 25 µM turned out to be 86 ± 2%.

Consider `CC(=O)N1CCc2sccc2C1c1ccccc1O` (stereo not shown) [Compound 33], for which, in data set [2], the inhibition at 25 µM was 24 ± 1%, the inhibition at 50 µM is 31 ± 1% and the half-maximal inhibitory concentration (IC50) is more than 25 µM. In data set [3], the CC50 at 72 h was more than 100 µM; the viability at 72 h, 12.5 µM was determined as 88 ± 3%; the viability at 72 h, 25 µM is 87 ± 5%.

For the compound `CC(=O)N1CCc2sccc2[C@H]1c1cccc(C)n1` [Compound 27, (S)-1-(4-(6-Methylpyridin-2-yl)-6,7-dihydrothieno[3,2-c]pyridin-5(4H)-yl)ethan-1-one], in data set [2], the “HHAT inhibition in the acyl-cLIP assay” value is “no inhibitory activity”, the inhibition at 25 µM stood at 4 ± 7%, the inhibition at 50 µM is 27 ± 6% and the concentration for half-maximal inhibition (IC50) is more than 100 µM. Moreover, in data set [3], the CC50 at 72 h was more than 100 µM; the viability at 72 h, 12.5 µM came to 90 ± 4%; the viability at 72 h, 25 µM came to 89 ± 3%.

For the compound `Clc1ccc(OCC2NCCc3sccc32)cc1` (stereo not shown) [Compound 1], in data set [2], the “HHAT inhibition in the acyl-cLIP assay” value is “inactive”, the inhibition at 25 µM amounted to 16 ± 5%, the inhibition at 50 µM was 2 ± 2% and the IC50 was more than 25 µM. In data set [3], this compound registered a viability at 72 h, 12.5 µM of 95 ± 3% and a viability at 72 h, 25 µM of 84 ± 4%.

`C=CC(=O)N1CCCCC1c1ccccc1` (stereo not shown) [Compound 48, 1-(2-Phenylpiperidin-1-yl)prop-2-en-1-one]: in data set [2], the inhibition at 25 µM is -2 ± 3%, the inhibition at 50 µM was -3 ± 2% and the IC50 was more than 25 µM. Further, in data set [3], the CC50 at 72 h was more than 100 µM; the viability at 72 h, 12.5 µM was found to be 93 ± 2%; the viability at 72 h, 25 µM is 90 ± 2%.

On to `Cc1cccc(C2NCCc3sccc32)n1` (stereo not shown) [Compound 20], for which, in data set [2], the “HHAT inhibition in the acyl-cLIP assay” value was “inactive”, the inhibition at 25 µM amounted to 9 ± 10%, the inhibition at 50 µM is -2 ± 19% and the IC50 was more than 25 µM. In data set [3], this compound yielded a viability at 72 h, 12.5 µM of 82 ± 2% and a viability at 72 h, 25 µM of 68 ± 3%.

With `CC(=S)N1CCc2sccc2C1c1ccccc1` (stereo not shown) [Compound 6], in data set [2], the inhibition at 25 µM stood at 44 ± 7%, the inhibition at 50 µM was 38 ± 2% and the IC50 is more than 25 µM. In data set [3], this compound returned a viability at 72 h, 12.5 µM of 27 ± 2% and a viability at 72 h, 25 µM of 29 ± 5%.

Turning to `CCC(C)CNCC(=O)N1CCc2cc(OC)c(OC)cc2C1c1ccccc1` (stereo not shown) [Compound 44, 1-(6,7-Dimethoxy-1-phenyl-3,4-dihydroisoquinolin-2(1H)-yl)-2-((2-methylbutyl)amino)ethan-1-one], in data set [2], the “HHAT inhibition in the acyl-cLIP assay” value is reported as “complete loss of HHAT inhibition”, the inhibition at 25 µM turned out to be 7 ± 3%, the inhibition at 50 µM is 8 ± 2% and the IC50 was more than 100 µM. Besides, in data set [3], the CC50 at 72 h is more than 100 µM; the viability at 72 h, 12.5 µM worked out at 96 ± 3%; the viability at 72 h, 25 µM stood at 95 ± 5%.

For the compound `C=CC(=O)N1CCCCC1c1ccccn1` (stereo not shown) [Compound 49, 1-(2-(Pyridin-2-yl)piperidin-1-yl)prop-2-en-1-one], in data set [2], the inhibition at 25 µM was found to be 8 ± 1%, the inhibition at 50 µM turned out to be 3 ± 1% and the 50% inhibitory concentration (IC50) is more than 25 µM. In data set [3], the CC50 at 72 h is more than 100 µM; the viability at 72 h, 12.5 µM came out at 96 ± 2%; the viability at 72 h, 25 µM is 89 ± 2%.

Turning to `CC(C)CNCC(=O)N1CCc2ccccc2C1c1ccccc1` (stereo in doubt) [Compound 42, (S)-2-((2-Methylpropyl)amino)-1-(1-phenyl-3,4-dihydroisoquinolin-2(1H)-yl)ethan-1-one], in data set [2], the “HHAT inhibition in the acyl-cLIP assay” value is “no inhibitory activity”, the inhibition at 25 µM was 6 ± 2%, the inhibition at 50 µM was 7 ± 2% and the IC50 is more than 100 µM. Moreover, in data set [3], the 50% cytotoxic concentration (CC50) at 72 h was more than 100 µM; the viability at 72 h, 12.5 µM stood at 92 ± 4%; the viability at 72 h, 25 µM came to 91 ± 2%.

Take `c1ccc(C2NCCc3sccc32)cc1` (stereo not shown) [Compound 4]: in data set [2], the “HHAT inhibition in the acyl-cLIP assay” value was “inactive”, the inhibition at 25 µM was 5 ± 3%, the inhibition at 50 µM was -16 ± 16% and the IC50 is more than 25 µM. In data set [3], this compound came in with a viability at 72 h, 12.5 µM of 90 ± 2% and a viability at 72 h, 25 µM of 84 ± 3%.
